Reference: PMC5154303, “Flavonol and imidazole derivatives block HPV16 E6 activities and reactivate apoptotic pathways in HPV^+ cells” (Cell Death & Disease, 2016)

Experiments:
[1] = target: GST-caspase 8/His-caspase 8 (Homo sapiens, UniProt Q14790); experiment: AlphaScreen counter-screen GST-caspase 8/His-caspase 8; format: binding; settings: counter-screen, bead-based assay, 1.4 μM–3.2 mM tested
Experimental: (§1) Figure 2 3-(1H-indol-1yl)propan-1-amine (1), three benzimidazole derivatives (2–4), and spinacine (5) inhibit protein–protein interactions. Five compounds at the indicated concentrations (1.4 μM–3.2 mM) were tested using our bead-based screening assay for their ability to inhibit three different protein/protein interactions: (a) GST-E6/His-caspase 8; (b) GST-E6/HisE6AP; and (c) GST-caspase 8/His-caspase 8. Binding in the presence of 1.4 μM of the test compound was set at 100%. Experiments were performed in triplicate, and error bars indicate the S.D.
To ask whether this inhibition was specific, we employed a counter-screening assay in which we assessed the ability of candidates to inhibit the binding of GST-caspase 8 to His-caspase 8; those that did were to be eliminated. In this counter-screening assay, the materials in each well were the same as in the primary screen, with the exception that GST-caspase 8 replaced GST-E6.
(§2) AlphaScreen Technology was used to assess the interactions between GST-E6, GST-caspase 8, His-E6AP, and His-caspase 8. Binding assays were performed in white 384-well plates (Perkin-Elmer) in a total volume of 25 μl as previously described.[33] Briefly, 5 μl (50 ng) of GST-E6 and 5 μl (87.5 ng) of His-caspase 8 were included in each reaction mixture with 5 μl blocking buffer (0.5 mg BSA, 0.5% Tween 20 in PBS) in the absence or presence of 10 μM of each test chemical. Members of the library were present at 10 μM in DMSO. After a 1-h incubation of the mixture at room temperature, 5 μl donor beads and 5 μl acceptor beads (Perkin-Elmer) were added to each well according to the manufacturer's protocol. The mixture was incubated in the dark at room temperature overnight, and the emitted signal was detected using the Envision Multilabel plate reader (Perkin-Elmer). In the presence of test chemicals, the binding affinity was calculated as a percentage of the binding in the presence of carrier only (DMSO).

GST-E6/His-E6AP = target: T1, GST-E6/His-E6AP (Human papillomavirus type 16, UniProt P03126); experiment: AlphaScreen bead-based binding assay GST-E6/His-E6AP; design: species or system HPV 16
T1 construct: made in house
Experimental: as §1
(§3) The construction of the pGEX-E6, pTriEx-E6AP, and pTriEx-Caspase-8 DED plasmids has been reported.[33] Expression and purification of GSTE6, His-E6AP, and His-Caspase-8 DED were carried out as previously described.[33], [37] GST-tagged and His-tagged proteins were diluted into GST dilution buffer (PBS pH 8.0, 5% glycerol, 2 mM DTT) and His dilution buffer (20 mM Hepes pH 7.4, 150 mM NaCl, 2 mMKCl, 5% glycerol, 2 mM DTT), respectively. Protein concentration was measured using Coomassie Plus – The Better Bradford Assay Reagent (Thermo Scientific, Waltham, MA, USA). Purity of the isolated proteins was estimated following separation by sodium dodecyl sulfate-polyacrylamide gel electrophoresis (SDS-PAGE) and Coomassie staining.
as §2

GST-E6/His-caspase 8 = target: T2, GST-E6/His-caspase 8 (Human papillomavirus type 16, UniProt P03126); experiment: AlphaScreen bead-based binding assay GST-E6/His-caspase 8; design: species or system HPV 16
T2 construct: made in house
Experimental: as §1, §3, §2

C33A cells = experiment: TRAIL-mediated apoptosis in HPV− C33A cells (MTT); format: cell-based, human; settings: 100 μM myricetin pretreatment 4 h, TRAIL + cycloheximide
Experimental: Figure 5 Myricetin and spinacine (5) can re-sensitize HPV^+, but not HPV^−, cells to treatment with TRAIL. SiHa (2 × 10^4 cells per well) and C33A cells (1 × 10^4 cells per well) were seeded into a 96-well plate and allowed to incubate overnight, and then cells were pretreated in the presence or absence of (a) myricetin (100 μM) or (b) spinacine (50 μM) for 4 h. The indicated concentration of TRAIL along with cycloheximide (5 μg/ml) was added, and the cells were allowed to incubate overnight. Cell viability was measured by MTT assay, and the viability of cells untreated with TRAIL was set at 100%. Experiments were performed in triplicate, and error bars indicate the S.D.
The extracellular domain of human TRAIL was cloned into a pTriEx expression plasmid containing N-terminal Hisx6 tag. His-TRAIL was expressed in the E. coli BL-21 pLys strain and purified as previously described. Doxorubicin and cisplatin were purchased from Sigma. His-TRAIL, doxorubicin, and cisplatin were diluted in PBS to the desired concentration before using. […] All experiments were repeated at least three times (three biological replicates, carried out on different days), with each experimental group measured in triplicate within each of these individual experiments. […]

T2 sequence (P03126 whole entry): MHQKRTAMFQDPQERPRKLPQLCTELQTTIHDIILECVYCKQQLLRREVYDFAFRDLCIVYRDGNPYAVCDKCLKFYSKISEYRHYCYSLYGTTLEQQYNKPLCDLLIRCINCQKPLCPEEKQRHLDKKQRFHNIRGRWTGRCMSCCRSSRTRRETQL
T1 sequence (P03126 whole entry): as above
Sequence of GST-caspase 8/His-caspase 8 (Q14790 1-184): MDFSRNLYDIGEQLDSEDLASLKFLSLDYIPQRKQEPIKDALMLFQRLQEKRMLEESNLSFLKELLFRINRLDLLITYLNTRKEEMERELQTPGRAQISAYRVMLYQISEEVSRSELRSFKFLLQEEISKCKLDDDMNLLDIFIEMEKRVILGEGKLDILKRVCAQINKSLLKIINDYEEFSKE

Row | SMILES | EC50 for GST-caspase 8/His-caspase 8 interaction [1] | EC50 (GST-E6/His-E6AP) [µM] | EC50 (GST-E6/His-caspase 8) [µM] | sensitivity of C33A cells to TRAIL-mediated apoptosis (C33A cells)
1 | O=C(O)C1Cc2[nH]cnc2CN1 (stereo not shown) [Spinacine (5), 4,5,6,7-tetrahydro-1H-imidazo[4,5–c]pyridine-6-carboxylic acid] | No Inhibition | 20 | 17 | 
2 | O=c1c(O)c(-c2cc(O)c(O)c(O)c2)oc2cc(O)cc(O)c12 [Myricetin, myricetin, reference compound] |  |  |  | remained resistant
